Measured values reported in patent publication US4016158A, “Cephalosporin derivatives” (Roussel-UCLAF, priority 1971, dated 1977).
Values after ≈ are worked out from the molar mass of the structure shown. Like-named read-outs stand apart in the source and are kept apart here.

Tests used:
Assay in all cases: MIC (Table II)
Format in all cases: cell-based
Escherichia coli 5524 = conditions: read-out: minimum inhibition concentration
Method: (§1) The antibiotic activity was determined by the diffusion method in a gelose medium at a pH of 7. The following Table expresses the minimum concentration of inhibition in mcg/ml (CMl) for the products against different microbial strains.
(§2) Using the same procedure as in Table I, the minimum inhibition concentration in mcg/ml was determined against different microbial strains with L(-) cis 7-[D(-)-α-aminophenylacetamido]-3-isopropyl-3-cepheme-4-carboxylic acid (product A) of Example 9.

[1] = system: Staphylococcus aureus 9373; conditions: Staphylococcus aureus, 9373, read-out: minimum inhibition concentration
Method: as §1, §2

[2] = system: Staphylococcus aureus 1098; conditions: read-out: minimum inhibition concentration
Method: as §1, §2

[3] = system: Staphylococcus aureus 9482; conditions: Staphylococcus aureus, 9482, read-out: minimum inhibition concentration
Method: as §1, §2

[4] = system: Staphylococcus aureus 9561; conditions: read-out: minimum inhibition concentration
Method: as §1, §2

Proteus mirabilis 8029 = conditions: read-out: minimum inhibition concentration
Method: as §1, §2

Escherichia coli 3019 = conditions: read-out: minimum inhibition concentration
Method: as §1, §2

[5] = system: Salmonella typhimurium 420; conditions: Salmonella enterica, read-out: minimum inhibition concentration
Method: as §1, §2

Proteus mirabilis 6194 = conditions: read-out: minimum inhibition concentration
Method: as §1, §2

Escherichia coli Taylor = conditions: read-out: minimum inhibition concentration
Method: as §1, §2

Proteus mirabilis 1668 = conditions: read-out: minimum inhibition concentration
Method: as §1, §2

[6] = system: Klebsiella pneumoniae 52145; conditions: read-out: minimum inhibition concentration
Method: as §1, §2

[7] = system: Staphylococcus aureus Frottis nasal; conditions: read-out: minimum inhibition concentration
Method: as §1, §2

[8] = system: Diplococcus pneumoniae 735; conditions: Streptococcus pneumoniae, read-out: minimum inhibition concentration
Method: as §1, §2

[9] = system: Streptococcus hemolyticus 905; conditions: Streptococcus pyogenes, read-out: minimum inhibition concentration
Method: as §1, §2

Shigella sonnei = conditions: read-out: minimum inhibition concentration
Method: as §1, §2

[10] = system: Staphylococcus aureus 8514; conditions: read-out: minimum inhibition concentration
Method: as §1, §2

[11] = system: Streptococcus hemolyticus 561; conditions: Streptococcus pyogenes, read-out: minimum inhibition concentration
Method: as §1, §2

[12] = system: Staphylococcus aureus 9729; conditions: Staphylococcus aureus, 9729, read-out: minimum inhibition concentration
Method: as §1, §2

Escherichia coli 51 = conditions: read-out: minimum inhibition concentration
Method: as §1, §2

Escherichia coli 9957 = conditions: read-out: minimum inhibition concentration
Method: as §1, §2

Escherichia coli 8497 = conditions: read-out: minimum inhibition concentration
Method: as §1, §2

Escherichia coli 1718 = conditions: read-out: minimum inhibition concentration
Method: as §1, §2

Escherichia coli 4965 = conditions: read-out: minimum inhibition concentration
Method: as §1, §2

Proteus mirabilis 3113 = conditions: read-out: minimum inhibition concentration
Method: as §1, §2

Escherichia coli 070 = conditions: read-out: minimum inhibition concentration
Method: as §1, §2

[13] = system: Staphylococcus aureus 5880; conditions: read-out: minimum inhibition concentration
Method: as §1, §2

[14] = system: Salmonella brandebourg 550; conditions: read-out: minimum inhibition concentration
Method: as §1, §2

Proteus mirabilis 8065 = conditions: read-out: minimum inhibition concentration
Method: as §1, §2

Escherichia coli 152 = conditions: read-out: minimum inhibition concentration
Method: as §1, §2

[15] = system: Staphylococcus aureus 4546; conditions: Staphylococcus aureus, 4546, read-out: minimum inhibition concentration
Method: as §1, §2

[16] = system: Staphylococcus aureus A8P; conditions: read-out: minimum inhibition concentration
Method: as §1, §2

CC(C)C1=C(C(=O)O)N2C(=O)[C@@H](NC(=O)[C@H](N)c3ccccc3)[C@H]2SC1 [Example 9, L (+) cis 7-[D (-)-α-aminophenylacetamido]-3-isopropyl-3-cepheme-4-carboxylic acid]
MIC (Escherichia coli 5524; 24h): 60 µg/mL (≈ 160 µM)
MIC (Escherichia coli 5524; 48h): 60 µg/mL (≈ 160 µM)
MIC (Escherichia coli 5524; 72h): 60 µg/mL (≈ 160 µM)
MIC ([1]; 24h): 1 µg/mL (≈ 2.66 µM)
MIC ([1]; 48h): 3 µg/mL (≈ 7.99 µM)
MIC ([1]; 72h): 5 µg/mL (≈ 13.3 µM)
MIC ([2]; 24h): 0.4 µg/mL (≈ 1.07 µM)
MIC ([2]; 48h): 1 µg/mL (≈ 2.66 µM)
MIC ([2]; 72h): 3 µg/mL (≈ 7.99 µM)
MIC ([3]; 24h): 1 µg/mL (≈ 2.66 µM)
MIC ([3]; 48h): 2 µg/mL (≈ 5.33 µM)
MIC ([3]; 72h): 2 µg/mL (≈ 5.33 µM)
MIC ([4]; 24h): 1 µg/mL (≈ 2.66 µM)
MIC ([4]; 48h): 3 µg/mL (≈ 7.99 µM)
MIC ([4]; 72h): 10 µg/mL (≈ 26.6 µM)
MIC (Proteus mirabilis 8029; 24h): 60 µg/mL (≈ 160 µM)
MIC (Proteus mirabilis 8029; 48h): > 100 µg/mL
MIC (Escherichia coli 3019; 24h): 30 µg/mL (≈ 79.9 µM)
MIC (Escherichia coli 3019; 48h): 40 µg/mL (≈ 107 µM)
MIC (Escherichia coli 3019; 72h): 40 µg/mL (≈ 107 µM)
MIC ([5]; 24h): 60 µg/mL (≈ 160 µM)
MIC ([5]; 48h): 60 µg/mL (≈ 160 µM)
MIC ([5]; 72h): > 100 µg/mL
MIC (Proteus mirabilis 6194; 24h): 60 µg/mL (≈ 160 µM)
MIC (Proteus mirabilis 6194; 48h): 80 µg/mL (≈ 213 µM)
MIC (Proteus mirabilis 6194; 72h): > 100 µg/mL
MIC (Escherichia coli Taylor; 24h): 40 µg/mL (≈ 107 µM)
MIC (Escherichia coli Taylor; 48h): 40 µg/mL (≈ 107 µM)
MIC (Escherichia coli Taylor; 72h): 60 µg/mL (≈ 160 µM)
MIC (Proteus mirabilis 1668; 24h): 100 µg/mL (≈ 266 µM)
MIC (Proteus mirabilis 1668; 48h): > 100 µg/mL
MIC ([6]; 24h): 30 µg/mL (≈ 79.9 µM)
MIC ([6]; 48h): 60 µg/mL (≈ 160 µM)
MIC ([6]; 72h): > 100 µg/mL
MIC ([7]; 24h): 2 µg/mL (≈ 5.33 µM)
MIC ([7]; 48h): 3 µg/mL (≈ 7.99 µM)
MIC ([7]; 72h): 10 µg/mL (≈ 26.6 µM)
MIC ([8]; 24h): 0.4 µg/mL (≈ 1.07 µM)
MIC ([8]; 48h): 1 µg/mL (≈ 2.66 µM)
MIC ([8]; 72h): 1 µg/mL (≈ 2.66 µM)
MIC ([9]; 24h): 2 µg/mL (≈ 5.33 µM)
MIC ([9]; 48h): 2 µg/mL (≈ 5.33 µM)
MIC ([9]; 72h): 2 µg/mL (≈ 5.33 µM)
MIC (Shigella sonnei; 24h): 30 µg/mL (≈ 79.9 µM)
MIC (Shigella sonnei; 48h): 30 µg/mL (≈ 79.9 µM)
MIC (Shigella sonnei; 72h): 30 µg/mL (≈ 79.9 µM)
MIC ([10]; 24h): 1 µg/mL (≈ 2.66 µM)
MIC ([10]; 48h): 2 µg/mL (≈ 5.33 µM)
MIC ([10]; 72h): 2 µg/mL (≈ 5.33 µM)
MIC ([11]; 24h): 0.6 µg/mL (≈ 1.6 µM)
MIC ([11]; 48h): > 40 µg/mL
MIC ([12]; 24h): 2 µg/mL (≈ 5.33 µM)
MIC ([12]; 48h): 2 µg/mL (≈ 5.33 µM)
MIC ([12]; 72h): 5 µg/mL (≈ 13.3 µM)
MIC (Escherichia coli 51; 24h): 100 µg/mL (≈ 266 µM)
MIC (Escherichia coli 51; 48h): > 100 µg/mL
MIC (Escherichia coli 9957; 24h): 40 µg/mL (≈ 107 µM)
MIC (Escherichia coli 9957; 48h): 100 µg/mL (≈ 266 µM)
MIC (Escherichia coli 9957; 72h): 100 µg/mL (≈ 266 µM)
MIC (Escherichia coli 8497; 24h): 100 µg/mL (≈ 266 µM)
MIC (Escherichia coli 8497; 48h): 100 µg/mL (≈ 266 µM)
MIC (Escherichia coli 8497; 72h): 100 µg/mL (≈ 266 µM)
MIC (Escherichia coli 1718; 24h): 40 µg/mL (≈ 107 µM)
MIC (Escherichia coli 1718; 48h): 40 µg/mL (≈ 107 µM)
MIC (Escherichia coli 1718; 72h): 60 µg/mL (≈ 160 µM)
MIC (Escherichia coli 4965; 24h): 30 µg/mL (≈ 79.9 µM)
MIC (Escherichia coli 4965; 48h): 40 µg/mL (≈ 107 µM)
MIC (Escherichia coli 4965; 72h): 40 µg/mL (≈ 107 µM)
MIC (Proteus mirabilis 3113; 24h): 100 µg/mL (≈ 266 µM)
MIC (Proteus mirabilis 3113; 48h): > 100 µg/mL
MIC (Escherichia coli 070; 24h): 40 µg/mL (≈ 107 µM)
MIC (Escherichia coli 070; 48h): 40 µg/mL (≈ 107 µM)
MIC (Escherichia coli 070; 72h): 40 µg/mL (≈ 107 µM)
MIC ([13]; 24h): 2 µg/mL (≈ 5.33 µM)
MIC ([13]; 48h): 3 µg/mL (≈ 7.99 µM)
MIC ([13]; 72h): 10 µg/mL (≈ 26.6 µM)
MIC ([14]; 24h): 30 µg/mL (≈ 79.9 µM)
MIC ([14]; 48h): 30 µg/mL (≈ 79.9 µM)
MIC ([14]; 72h): 40 µg/mL (≈ 107 µM)
MIC (Proteus mirabilis 8065; 24h): 60 µg/mL (≈ 160 µM)
MIC (Proteus mirabilis 8065; 48h): > 100 µg/mL
MIC (Escherichia coli 152; 24h): 30 µg/mL (≈ 79.9 µM)
MIC (Escherichia coli 152; 48h): 30 µg/mL (≈ 79.9 µM)
MIC (Escherichia coli 152; 72h): 40 µg/mL (≈ 107 µM)
MIC ([15]; 24h): 0.6 µg/mL (≈ 1.6 µM)
MIC ([15]; 48h): 2 µg/mL (≈ 5.33 µM)
MIC ([15]; 72h): 3 µg/mL (≈ 7.99 µM)
MIC ([16]; 24h): 1 µg/mL (≈ 2.66 µM)
MIC ([16]; 48h): 3 µg/mL (≈ 7.99 µM)
MIC ([16]; 72h): 10 µg/mL (≈ 26.6 µM)
